# Measured values reported in patent US20180360072A1 (priority 2017, published 2018).
# Like-named read-outs stand apart in the source and are kept apart here.
# How the values were obtained:
# [1] = system: C. perfringens; assay: microbe, parasite or virus in culture; type: cell-based, Clostridium perfringens
# [2] = system: E. maxima and C. perfringens; type: in vivo, broiler chicks
# [3] = system: E. maxima and C. perfringens; type: in vivo, broiler chicks; remark: listed apart in the source
# [4] = system: C. jejuni; assay: C. jejuni in vitro growth inhibition in BHI broth (OD600); type: cell-based, Campylobacter jejuni; conditions: 1 mM, 48 hours in BHI broth; for C. jejuni growth, OD600: microaerobic, without bile acid 0.153
# Procedure: To evaluate bile acids on C. jejuni growth, the bacterium was inoculated in BHI broth. The medium was also added final concentration of 0, 0.2, 0.5, and 1 mM DCA, and 1 mM TCA and CA. After 48-hour culture under microaerobic condition, the bacterium growth was measured at OD600.
# [5] = system: C. perfringens 16S, Cpb and Virx mRNA; design: species or system broiler chicks; conditions: in vivo
# [6] = system: Ptgs2 and Atp6vg1 mRNA; assay: Host response gene mRNA accumulation in ileal tissue (real time PCR); type: in vivo; conditions: DCA diet; chicken ileal tissue; normalized to Gapdh
# Procedure: Total RNA from chicken intestinal tissue was extracted using TRIzol (Invitrogen, Carlsbad, Calif.). Briefly, after bead beater disruption in TRIzol and chloroform and centrifugation, supernatant was precipitated with isopropanol. The pelleted RNA was washed once with 75% ethanol. The final RNA was dissolved in DNase/RNase free water and stored in −80° C. freezer. Complementary DNA was prepared using M-MLV (NEB).
# Messenger RNA levels of proinflammatory genes were determined using SYBR Green PCR Master Mix (Bio-Rad, Hercules, Calif.) on an Bio-Rad 384-well Real-Time PCR System and normalized to Gapdh. The polymerase chain reactions were performed on 384-well real time PCR machine (Bio-Rad, Hercules, Calif.) according to the manufacturer's recommendation. […]
# [7] = system: C. jejuni strain 81-176; assay: C. jejuni 81-176 cecal colonization in broiler chicks fed DCA diet; type: in vivo; conditions: 1.5 g/kg DCA diet, 10^9 CFU/chick C. jejuni 81-176 at 14 days of age
# [8] = system: C. perfringens; type: in vivo, broiler chicks; conditions: DCA birds vs NE control birds; 16S rDNA real time PCR
# [9] = system: Infγ, Tnfα and Mmp9 mRNA; design: species or system broiler chicks; conditions: in vivo
# [10] = Broiler growth performance (body weight gain, feed conversion ratio) on DCA diet; type: in vivo, broiler chicks
# [11] = Separate growth experiment, 26 days: body weight gain and ileal fat and nitrogen levels; type: in vivo, broiler chicks; conditions: 1.5 g/kg feed DCA diet for 26 days vs basal diet
# Procedure: In a separate experiment, birds were fed diet supplementing with DCA at 1.5 g/kg feed. After 26 days the birds were weighed and sacrificed and ileal content were collected. The dry matter (DM), crude fat, and nitrogen levels in the ileal content was analyzed at the Central Analytical Lab at Department of Poultry Science at University of Arkansas at Fayetteville, Ark.
smiles,measurement,setting,value
"C[C@H](CCC(=O)O)[C@H]1CC[C@H]2[C@@H]3[C@H](O)C[C@@H]4C[C@H](O)CC[C@]4(C)[C@H]3C[C@H](O)[C@]12C [CA, cholic acid]",inhibition at 1000 µM,"[1]; Clostridium perfringens, 1 mM, read-out: inhibition of C. perfringens growth",30%
same,NE-induced intestinal inflammation and histopathology score,[2]; in vivo,reduces bird NE intestinal inflammation
same,productivity / body weight gain loss at NE phase,[3]; in vivo,attenuated body weight gain loss
same,productivity / body weight gain loss at coccidiosis phase,[3]; in vivo,failed
same,effect on C. jejuni growth,[4],failed to inhibit C. jejuni growth
same,"C. jejuni growth, OD600",[4],0.19
"C[C@H](CCC(=O)O)[C@H]1CC[C@H]2[C@@H]3CC[C@@H]4C[C@H](O)CC[C@]4(C)[C@H]3C[C@H](O)[C@]12C [DCA, deoxycholic acid]",inhibition of C. perfringens growth,"[1]; 0.4 mM, TSB, overnight, anaerobic, OD600",87%
same,block of C. perfringens 16S mRNA accumulation,[5],97%
same,block of C. perfringens Cpb mRNA accumulation,[5],61%
same,block of C. perfringens Virx mRNA accumulation,[5],61%
same,Atp6vg1 mRNA accumulation change compared to control diet,[6],+40%
same,Ptgs2 mRNA accumulation change compared to control diet,[6],+92%
same,C. jejuni colonization level in ceca,[7]; 2 days PI,0 CFU/g
same,C. jejuni colonization level in ceca,[7]; 7 days PI,9.0×10^2 CFU/g
same,C. jejuni colonization level in ceca,[7]; 14 days PI,0 CFU/g
same,ileal luminal C. perfringens load,[8],not significantly different from NE control birds
same,NE-induced intestinal inflammation and histopathology score,"[2]; 1.5 g/kg diet, upper ileum, H&E, vs NE control birds",significantly attenuated
same,attenuation of NE-induced Infγ mRNA accumulation,[9],51%
same,attenuation of NE-induced Mmp9 mRNA accumulation,[9],66%
same,attenuation of NE-induced Tnfα mRNA accumulation,[9],82%
same,accumulative feed conversion ratio improvement compared to control diet,[10],16.6%
same,body weight gain increase compared to control diet,[10]; at 28 days of age,11.9%
same,body weight gain,"[10]; at 28 days of age, control diet 2.86",3.20 lb
same,accumulative feed conversion ratio,"[10]; control diet 1.81, lower value means better feed efficiency",1.51
same,productivity / body weight gain loss at coccidiosis phase,"[3]; 1.5 g/kg diet, d 18-23, compared to Em and NE control birds",prevented productivity loss
same,productivity / body weight gain loss at NE phase,"[3]; 1.5 g/kg diet, d 23-26, compared to NE control birds",prevented productivity loss
same,growth performance on body weight gain and feed efficiency before infection,"[3]; 1.5 g/kg diet, during 1-14 and 14-18 days of age, compared to birds fed other diets",promoted bird growth performance on body weight gain (FIG. 9A) and feed efficiency
same,effect on C. jejuni growth,[4],slightly enhanced but not inhibit C. jejuni growth
same,"C. jejuni growth, OD600",[4],0.213
same,growth performance on body weight gain,[11],promoted bird growth performance on body weight gain
"C[C@H](CCC(=O)NCCS(=O)(=O)O)[C@H]1CC[C@H]2[C@@H]3[C@H](O)C[C@@H]4C[C@H](O)CC[C@]4(C)[C@H]3C[C@H](O)[C@]12C [TCA, taurocholic acid, reference compound]",inhibition of C. perfringens growth,[1],failed to prevent its growth
same,effect on C. jejuni growth,[4],failed to inhibit C. jejuni growth
same,"C. jejuni growth, OD600",[4],0.197
